Experimental data as given in BindingDB's records for doi:10.1021/jm060234e (Scientific Computing, 2006).

Biological target: T1, Progesterone receptor (Homo sapiens, UniProt P06401)
T1 sequence (P06401 whole entry): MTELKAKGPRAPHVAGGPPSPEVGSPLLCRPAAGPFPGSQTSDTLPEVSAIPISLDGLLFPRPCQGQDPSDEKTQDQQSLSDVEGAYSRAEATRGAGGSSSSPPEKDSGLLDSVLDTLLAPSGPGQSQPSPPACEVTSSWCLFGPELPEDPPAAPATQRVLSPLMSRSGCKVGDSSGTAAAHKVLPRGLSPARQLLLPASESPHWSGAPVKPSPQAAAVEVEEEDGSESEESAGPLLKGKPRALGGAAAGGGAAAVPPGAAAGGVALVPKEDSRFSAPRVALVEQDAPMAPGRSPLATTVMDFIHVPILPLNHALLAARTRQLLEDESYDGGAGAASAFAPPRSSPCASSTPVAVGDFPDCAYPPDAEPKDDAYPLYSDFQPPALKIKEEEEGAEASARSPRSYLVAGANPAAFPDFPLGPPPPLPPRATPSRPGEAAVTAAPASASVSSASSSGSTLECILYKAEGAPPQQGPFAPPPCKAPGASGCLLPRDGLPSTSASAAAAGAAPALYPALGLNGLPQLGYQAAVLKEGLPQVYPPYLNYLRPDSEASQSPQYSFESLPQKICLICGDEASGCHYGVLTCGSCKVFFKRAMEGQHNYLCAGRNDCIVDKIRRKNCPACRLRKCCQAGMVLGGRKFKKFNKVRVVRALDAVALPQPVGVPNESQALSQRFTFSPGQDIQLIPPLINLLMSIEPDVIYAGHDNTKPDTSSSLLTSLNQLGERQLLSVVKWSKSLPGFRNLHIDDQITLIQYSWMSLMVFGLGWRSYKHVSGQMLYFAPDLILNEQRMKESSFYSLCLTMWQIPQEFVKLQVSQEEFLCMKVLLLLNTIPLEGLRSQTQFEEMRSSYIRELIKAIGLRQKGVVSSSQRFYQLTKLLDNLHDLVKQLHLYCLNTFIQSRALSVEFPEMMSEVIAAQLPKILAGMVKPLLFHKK
Test: Displacement of [3H]progesterone from Progesterone receptor

Ki [nM] | SMILES
13 | CC1=CC(C)(C)Nc2ccc3c(c21)COc1c(F)cc(F)cc1-3 [7,9-difluoro-2,2,4-trimethyl-2,5-dihydro-1H-chromeno[3,4-f]quinoline]
15 | CC1=CC(C)(C)Nc2ccc3c(c21)Cc1c(F)cccc1-3 [10-Fluoro-1,3,3-trimethyl-4,11-dihydro-3H-indeno[2,1-f]quinoline]
